Laboratory results published in ChEMBL document CHEMBL1201862, “PubChem BioAssay data set” (2004).
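Step 1: Grow cells in 96-well plates. Step 2: Expose to compound for 48 hours at 5 concentrations. Step 3: Interpolate endpoints linearly; if unreached, use highest concentration. Abbreviation: GI50, concentration required for 50% inhibition of growth.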 Active and inactive are the calls of the source. No stated cut-off is given here; in the data, active = GI50 up to about 1.1 µM and inactive = higher.

Experiments:
Assay in all cases: DTP human tumour cell line panel, 48 h
[1] = system: HCT-15
[2] = system: NCI-H226
[3] = system: UO-31
[4] = system: SK-OV-3
[5] = system: HOP-62
[6] = system: 786-0
[7] = system: OVCAR-4
[8] = system: SW-620
[9] = system: K562
[10] = system: UACC-257
[11] = system: A498
[12] = system: RXF 393
[13] = system: HOP-92
[14] = system: SF-295
[15] = system: COLO 205
[16] = system: SNB-19
[17] = system: MOLT-4
[18] = system: CCRF-CEM

SMILES	GI50 [1] [µM]	GI50 [2]	GI50 [3]	GI50 [4]	GI50 [5]	GI50 [6]	GI50 [7]	GI50 [8]	GI50 [9]	GI50 [10]	GI50 [11]	GI50 [12]	GI50 [13]	GI50 [14]	GI50 [15]	GI50 [16]	GI50 [17]	GI50 [18]
CCCCCCCCCCC(=O)CC(=O)c1c(O)cccc1O	47.4	17.9 µM (inactive)	29 µM (inactive)	38.1 µM (inactive)	24.1 µM (inactive)	36.1 µM (inactive)	43.1 µM (inactive)	34.2 µM (inactive)	24.9 µM (inactive)	31.2 µM (inactive)	30.9 µM (inactive)	26.3 µM (inactive)	27.1 µM (inactive)	36.6 µM (inactive)	31 µM (inactive)	61.8 µM (inactive)	20.4 µM (inactive)	
COc1ccc(Cc2c(=O)[nH]nc3ccccc23)cc1	> 100	85.7 µM (inactive)	43.8 µM (inactive)	> 100 µM (inactive)	> 100 µM (inactive)	> 100 µM (inactive)	> 100 µM (inactive)	> 100 µM (inactive)	> 100 µM (inactive)	> 100 µM (inactive)	> 100 µM (inactive)		> 100 µM (inactive)	> 100 µM (inactive)	> 100 µM (inactive)	> 100 µM (inactive)	> 100 µM (inactive)	> 100 µM (inactive)
NC(=O)C1C(=O)Oc2cccnc21 (stereo unspecified)	> 100	96.2 µM (inactive)	99.8 µM (inactive)	> 100 µM (inactive)	> 100 µM (inactive)	> 100 µM (inactive)		83 µM (inactive)	> 100 µM (inactive)	89.9 µM (inactive)		> 100 µM (inactive)		> 100 µM (inactive)	> 100 µM (inactive)	> 100 µM (inactive)	> 100 µM (inactive)	> 100 µM (inactive)
CCCOC(=O)C1CCC(=O)N1C(=O)C(Cl)Cl (stereo unspecified)	> 100	> 100 µM (inactive)	> 100 µM (inactive)	> 100 µM (inactive)	> 100 µM (inactive)	> 100 µM (inactive)	> 100 µM (inactive)	> 100 µM (inactive)	> 100 µM (inactive)	> 100 µM (inactive)	> 100 µM (inactive)		> 100 µM (inactive)	> 100 µM (inactive)	> 100 µM (inactive)	> 100 µM (inactive)	> 100 µM (inactive)	> 100 µM (inactive)
Cc1nc2ccc(N)cc2nc1O	> 100		> 100 µM (inactive)	> 100 µM (inactive)	> 100 µM (inactive)	> 100 µM (inactive)	> 100 µM (inactive)	> 100 µM (inactive)	> 100 µM (inactive)	> 100 µM (inactive)	> 100 µM (inactive)		5.89 µM (inactive)	> 100 µM (inactive)	> 100 µM (inactive)	> 100 µM (inactive)	> 100 µM (inactive)	> 100 µM (inactive)
O=C(O)CCC(N/C=C1/N=C(c2ccccc2)OC1=O)C(=O)O (stereo unspecified)	> 100	> 100 µM (inactive)	> 100 µM (inactive)	> 100 µM (inactive)	> 100 µM (inactive)	> 100 µM (inactive)	> 100 µM (inactive)	> 100 µM (inactive)	> 100 µM (inactive)	> 100 µM (inactive)	> 100 µM (inactive)	> 100 µM (inactive)		> 100 µM (inactive)	> 100 µM (inactive)	> 100 µM (inactive)	> 100 µM (inactive)	> 100 µM (inactive)
COC(=O)C1(C)CCc2c(OC)ccc(OC)c2C1=O (stereo unspecified)	> 100	> 100 µM (inactive)	76.2 µM (inactive)	> 100 µM (inactive)	> 100 µM (inactive)	> 100 µM (inactive)	> 100 µM (inactive)	> 100 µM (inactive)	> 100 µM (inactive)	> 100 µM (inactive)		> 100 µM (inactive)		> 100 µM (inactive)	> 100 µM (inactive)	> 100 µM (inactive)	> 100 µM (inactive)	> 100 µM (inactive)
CC(=O)c1sc(-c2nc(C)c(C(=O)/C=C\c3ccc(/C=C\C(=O)c4sc(-c5nc(C)c(C(C)=O)s5)nc4C)cc3)s2)nc1C	> 100	> 100 µM (inactive)	> 100 µM (inactive)	> 100 µM (inactive)	> 100 µM (inactive)	> 100 µM (inactive)	> 100 µM (inactive)	> 100 µM (inactive)	> 100 µM (inactive)	> 100 µM (inactive)		> 100 µM (inactive)		> 100 µM (inactive)	> 100 µM (inactive)	> 100 µM (inactive)	> 100 µM (inactive)	80.7 µM (inactive)
Cc1ccc(N2C(=O)CS/C2=C(\C#N)c2nc3ccccc3[nH]2)cc1	> 100	> 100 µM (inactive)	> 100 µM (inactive)		> 100 µM (inactive)	> 100 µM (inactive)	> 100 µM (inactive)	> 100 µM (inactive)	> 100 µM (inactive)	> 100 µM (inactive)	> 100 µM (inactive)		> 100 µM (inactive)		> 100 µM (inactive)	> 100 µM (inactive)	> 100 µM (inactive)	> 100 µM (inactive)
